Measured values as given in US8895752B2, “Alkylsulfonyl-substituted thiazolide compounds” (priority 2007, dated 2014).
Several values for one entry are separate records, joined by “and”; a condition that tells them apart may be missing. Identical values can stand only once. Like-named read-outs stand apart in the source and are kept apart here.

Columns and labels:
[1] = Cytotoxicity by neutral red dye uptake in 2.2.15 cells; details: human
Experimental: (§1) HBV antiviral assays were conducted as previous described (Korba and Gerin, 1992).
(§2) EC50, EC90 and CC50 values (±standard deviations [S.D.]) were calculated by linear regression analysis using data combined from all treated cultures (Korba and Gerin, 1992; Okuse et al., 2005). […] Selectivity index (S.I.) was calculated as CC50/EC90 for HBV assays and CC50/EC50 for HCV assays. EC90 values were used for calculation of the S.I. in HBV assays since at least a […] depression of HBV DNA levels is typically required to achieve statistical significance in this assay system (Korba and Gerin, 1992). For combination treatments, EC50, EC90, CC50 and S.I. are presented for the first compound listed. The molar ratio of the compounds in each combination is also indicated.

[2] = Cytotoxicity by neutral red dye uptake in Huh7 cells containing H/FL-Neo; type: cell-based; details: human; Genotype 1a replicon
HBV = HBV antiviral assay in confluent 2.2.15 cell cultures (HBV DNA, quantitative blot hybridization); type: cell-based, Hepatitis B Virus; details: for EC50 / EC90: Hepatitis B virus
[3] = Cytotoxicity in HCV replicon cells in the presence of human serum
Experimental: (§3) Antiviral activity of test compounds was assessed in a 3-day assay using the stably-expressing HCV replicon cell line, AVA5 (sub-genomic CON1, genotype 1b) (Blight et al., 2000) maintained as sub-confluent cultures on 96-well plates as previously described (Okuse et al., 2005). Antiviral activity was determined by blot hybridization analysis of intracellular HCV RNA (normalized to the level of cellular B-actin RNA in each culture sample) and cytotoxicity was assessed by neutral red dye uptake after 3 days of treatment. Additional studies were performed using Huh7 cells containing another HCV replicon, H/FL-Neo, a genotype 1a full length construct (Blight et al., 2003). For studies involving human serum, standard culture medium (which contains 10% fetal bovine serum) and assay conditions were maintained.
as §2
(§4) To evaluate the effect of human serum on the anti-HCV potency and cytotoxicity of TIZ, human serum was added to the culture medium at various concentrations (Table 6). […] In the below tables, RM4863 is the same as compound 6 of Table 7.

HCV replication [4] = test: HCV replicon assay in the presence of human serum; type: cell-based; details: Hepatitis C virus
Experimental: as §3, §2, §4

[5] = Cytotoxicity by neutral red dye uptake in AVA5 cells; type: cell-based; details: human, Genotype 1b replicon
[6] = test system: HCV replicon H/FL-Neo, genotype 1a full length; test: HCV replicon assay in Huh7 cells containing H/FL-Neo; type: cell-based, Hepatitis C Virus; details: for EC50 / EC90: Hepatitis C virus, Huh-7
Experimental: as §3, §2

[7] = test system: HCV replicon, sub-genomic CON1, genotype 1b; test: 3-day HCV replicon assay in AVA5 cells (intracellular HCV RNA, blot hybridization); type: cell-based, Hepatitis C Virus; details: Genotype 1b replicon
Experimental: as §3, §2

cytochrome P450 enzymes = details: cited from earlier work
[8] = cited from earlier work
2.2.15 cells = test: Cytotoxicity by neutral red dye uptake in 2.2.15 cells; details: rapidly dividing cultures
Experimental: as §1, §2

HBV RNA = test: Intracellular HBV RNA by quantitative northern blot hybridization in 2.2.15 cells; type: cell-based, Hepatitis B Virus
Experimental: (§5) Cultures of 2.2.15 cells were treated under standard procedures and semi-quantitative EIA-based analysis of HBV proteins was performed as previously described (Korba and Gerin, 1995), except that HBeAg was analyzed ETI-EBK Plus® (DiaSorin, Inc., Stillwater, Minn. USA). Samples were diluted (2 to 10-fold) to bring levels into the dynamic response ranges of the EIA's. HBsAg, and HBeAg were analyzed from culture medium samples and HBcAg was analyzed from intracellular lysates. Intracellular HBV RNA was assessed by quantitative northern blot hybridization (Korba and Gerin, 1995).

HBcAg = test: Semi-quantitative EIA of HBV proteins in 2.2.15 intracellular lysates; type: cell-based, Hepatitis B Virus
Experimental: as §5

Wild-type HBV = test: 5-day transient transfection assay in Huh7 cells, intracellular HBV RI by Southern blot; type: cell-based, Hepatitis B Virus; details: Hepatitis B virus, Huh-7
HBsAg = test: Semi-quantitative EIA of HBV proteins in 2.2.15 culture medium; type: cell-based, Hepatitis B Virus
Experimental: as §5

HBeAg = test: as above; type: cell-based, Hepatitis B Virus
Experimental: as §5

HBV Mutant L180M/M204V = test: 5-day transient transfection assay in Huh7 cells, intracellular HBV RI by Southern blot; type: cell-based, Hepatitis B Virus; details: Hepatitis B virus, Huh-7
Experimental: (§6) Activity against LMV-resistant (Allen et al., 1998) and ADV-resistant (Angus et al., 2003) HBV mutants was performed in a 5-day assay using a transient transfection method as previously described (Iyer et al., 2004). Antiviral activity was determined by quantitative Southern blot hybridization of intracellular HBV DNA replication intermediates (HBV RI).

HBV Mutant M204I = test: as above; type: cell-based, Hepatitis B Virus; details: Hepatitis B virus, Huh-7
Experimental: as §6

HBV Mutant M204V = test: as above; type: cell-based, Hepatitis B Virus; details: Hepatitis B virus, Huh-7
Experimental: as §6

HBV Mutant L180M = test: as above; type: cell-based, Hepatitis B Virus; details: Hepatitis B virus, Huh-7
Experimental: as §6

HBV Mutant N236T = test: as above; type: cell-based, Hepatitis B Virus; details: Hepatitis B virus, Huh-7
Experimental: as §6

HCV replication [9] = test: HCV replicon assay, 6 days total duration, NTZ monotherapy pre-treatment and combination therapy; type: cell-based; details: Hepatitis C virus, 144 h, first named drug for combinations
Experimental: as §3, with “Antiviral activity of test compounds was assessed in a 3-day assay using the stably-expressing” left out
as §2

[10] = read-out: Intracellular HBV RI EC50
[11] = 2.2.15 cells, nine daily doses, read-out: Extracellular virion DNA EC50
[12] = Hepatitis C virus, Ava5, 72 h, 3 days, first compound listed for combinations

In the case of O=C(Nc1ncc([N+](=O)[O-])s1)c1ccccc1O [TIZ, tizoxanide], the CC50 at 9 days [1] is reported as > 100000 nM, the CC50 at 3 days [2] is reported as 14000 ± 200 nM and the “Selectivity Index Virion” value (HBV; CC50/EC90, extracellular virion DNA) is reported as >172. The “Selectivity Index RI” value (HBV; CC50/EC90, intracellular HBV RI) was >83, the EC50 (HBV; [10]) was 460 ± 50 nM and the EC50 (HBV; [11]) was 150 ± 20 nM. For the same compound, the EC90 (HBV; 2.2.15 cells, nine daily doses, read-out: Extracellular virion DNA EC90) was 580 ± 60 nM, the EC90 (HBV; 2.2.15 cells, nine daily doses, read-out: Intracellular HBV RI EC90) was 1200 ± 200 nM and the CC50 at 3 days ([3]; CC50, human serum 0 %) was 28000 ± 900 nM. For the same compound, the CC50 at 3 days ([3]; CC50, human serum 2.5 %) was 65000 ± 1400 nM, the CC50 at 3 days ([3]; CC50, human serum 5 %) was 97000 ± 3900 nM and the CC50 at 3 days ([3]; CC50, human serum 10 %) was > 100000 nM. For the same compound, the CC50 at 3 days ([3]; CC50, human serum 15 %) was > 100000 nM, the CC50 at 3 days ([3]; CC50, human serum 20 %) was > 100000 nM and the CC50 at 3 days ([3]; CC50, human serum 30 %) was > 100000 nM. It also gave an EC50 (HCV replication [4]; human serum 0 %) of 250 ± 10 nM, an EC90 (HCV replication [4]; human serum 0 %) of 980 ± 40 nM and an EC50 (HCV replication [4]; human serum 2.5 %) of 480 ± 20 nM. It also gave an EC90 (HCV replication [4]; human serum 2.5 %) of 1100 ± 100 nM, an EC50 (HCV replication [4]; human serum 5 %) of 640 ± 50 nM and an EC90 (HCV replication [4]; human serum 5 %) of 2300 ± 100 nM. For the same compound, the EC50 (HCV replication [4]; human serum 10 %) was 1100 ± 100 nM, the EC90 (HCV replication [4]; human serum 10 %) was 3000 ± 200 nM and the EC50 (HCV replication [4]; human serum 15 %) was 2700 ± 300 nM. For the same compound, the EC90 (HCV replication [4]; human serum 15 %) was 15000 ± 2000 nM, the EC50 (HCV replication [4]; human serum 20 %) was 9400 ± 800 nM and the EC90 (HCV replication [4]; human serum 20 %) was 27000 ± 2200 nM. For the same compound, the EC50 (HCV replication [4]; human serum 30 %) was 9300 ± 900 nM, the EC90 (HCV replication [4]; human serum 30 %) was 32000 ± 3000 nM and the CC50 at 3 days ([5]; AVA5 cells (HCV replicon, sub-genomic CON1)) was 15000 ± 1200 nM. The “antiviral activity against full length genotype 1a replicon compared with AVA5 cells (genotype 1b)” value [6] was “equivalent”, the “Selectivity Index” value ([6]; Genotype 1a replicon, CC50/EC50) was 56 and the EC50 ([6]; Genotype 1a replicon) was 250 ± 30 nM. The EC90 ([6]; Genotype 1a replicon) was 1000 ± 100 nM, the “Selectivity Index” value ([7]; CC50/EC50) was 100 and the “inhibition of cytochrome P450 enzymes” value (cytochrome P450 enzymes) was “does not inhibit”. For the same compound, the “elimination half-life from plasma” value ([8]; in vivo) was “approximately 1.5 hours”, the Maximum serum concentrations ([8]; one 500 mg NTZ tablet (Alinia) orally with food) was “approximately 10 μg/mL and ~37 μM” and the “part of an oral dose that passes through the intestinal tract and is excreted in feces as TIZ” value ([8]; oral dose of NTZ) was “Approximately two-thirds”.
In the case of CC(=O)Oc1ccccc1C(=O)Nc1ncc([N+](=O)[O-])s1 [NTZ, nitazoxanide], the “cytotoxicity in rapidly dividing cultures of 2.2.15 cells” value (2.2.15 cells) is reported as 20 ± 1.3 µM, the CC50 at 9 days [1] is reported as > 100000 nM and the CC50 at 3 days [2] is reported as 49000 ± 1500 nM. The “effect on intracellular HBV RNA (Northern blot hybridization)” value (HBV RNA) was “did not induce a reduction”, the EC50 (HBV; [10]) was 590 ± 70 nM and the EC50 (HBV; 2.2.15 cells, Table 3 experiment, read-out: HBV R.I. EC50) was 730 ± 60 nM. It also gave an EC90 (HBV; 2.2.15 cells, Table 3 experiment, read-out: HBV R.I. EC90) of 2200 ± 300 nM, an EC50 (HBV; 2.2.15 cells, Table 3 experiment, read-out: Virion production EC50) of 190 ± 20 nM and an EC90 (HBV; 2.2.15 cells, Table 3 experiment, read-out: Virion production EC90) of 580 ± 40 nM. For the same compound, the EC50 (HBV; [11]) was 120 ± 20 nM, the EC50 (HBcAg; read-out: HBcAg EC50, 2.2.15 cells) was 1100 ± 100 nM and the EC90 (HBcAg; read-out: HBcAg EC90, 2.2.15 cells) was 3000 ± 200 nM. For the same compound, the CC50 at 3 days [5] was 38000 ± 1800 nM, the “antiviral activity against full length genotype 1a replicon compared with AVA5 cells (genotype 1b)” value [6] was “equivalent” and the EC50 ([6]; Genotype 1a replicon) was 330 ± 50 nM. For the same compound, the EC90 ([6]; Genotype 1a replicon) was 1100 ± 100 nM, the EC50 [7, 12] was 210 ± 30 nM and the EC90 [7, 12] was 930 ± 110 nM. The EC50 (Wild-type HBV) was 210 ± 30 nM, the EC90 (Wild-type HBV; Wild-type, Huh7 transient transfection) was 770 ± 90 nM and the detection in plasma ([8]; oral 500 mg tablet) was “not detected”. For the same compound, the EC50 (HBsAg; read-out: HBsAg EC50, 2.2.15 cells) was 220 ± 30 nM, the EC90 (HBsAg; read-out: HBsAg EC90, 2.2.15 cells) was 1000 ± 100 nM and the EC50 (HBeAg; read-out: HBeAg EC50, 2.2.15 cells) was 260 ± 20 nM. The EC90 (HBeAg; read-out: HBeAg EC90, 2.2.15 cells) was 1300 ± 100 nM, the EC50 (HBV Mutant L180M/M204V) was 180 ± 20 nM and the EC90 (HBV Mutant L180M/M204V) was 720 ± 90 nM. It also gave an EC50 (HBV Mutant M204I) of 310 ± 50 nM, an EC90 (HBV Mutant M204I) of 1000 ± 200 nM and an EC50 (HBV Mutant M204V) of 150 ± 20 nM. It also gave an EC90 (HBV Mutant M204V) of 700 ± 80 nM, an EC50 (HBV Mutant L180M) of 230 ± 30 nM and an EC90 (HBV Mutant L180M) of 800 ± 90 nM. For the same compound, the EC50 (HBV Mutant N236T) was 280 ± 30 nM, the EC90 (HBV Mutant N236T) was 850 ± 100 nM and the EC50 (HCV replication [9]) was 200 ± 20 nM. For the same compound, the EC90 (HCV replication [9]) was 920 ± 100 nM.
